Laboratory results from patent EP4417602A1, “SUBSTITUTED PYRAZOLE CARBOXAMIDES, SALTS THEREOF AND THEIR USE AS HERBICIDALLY ACTIVE SUBSTANCES” (Bayer AG, priority 2023, dated 2024).

tested on: DIGSA; assay: A. Herbicidal pre-emergence action on harmful plants (Tables A); assay type: in vivo, Digitaria sanguinalis; conditions: application rate 320 g/ha; Table A12b
Description: (§1) Seeds of mono- and dicotyledonous weed plants were sown in plastic pots (double sowings with one species of mono- and one species of dicotyledonous weed plants per pot), in sandy loam, and covered with soil. The compounds according to the invention, formulated in the form of wettable powders (WP) or as emulsifiable concentrates (EC), were applied to the surface of the covering soil as aqueous suspension or emulsion, with the addition of 0.5% of an additive, at an application rate of 6001 of water per hectare (converted). Following treatment, the pots were placed in a greenhouse and kept under optimum growth conditions for the test plants. The visual grading of the damage to the test plants was carried out after ca. 3 weeks in comparison to untreated controls (herbicidal effect in percent (%): 100% effect = plants have died off, 0% effect = as control plants). Tables A1 to A12, below, show the effects of selected compounds of the general formula (I) according to table 1 on various harmful plants and an application rate corresponding to 1280 g/ha or below obtained by the experimental procedure mentioned above. Table A1: pre-emergence activity at 1280g/ha against ABUTH in %

SMILES	pre-emergence activity against DIGSA [%]
Cn1cc(C(=O)N2CCC2Cc2c(F)cccc2Cl)c(COCC(F)F)n1 (racemic) [Example I-107]	90
CCOCc1nn(C)cc1C(=O)N1CCC1Cc1c(F)cccc1Cl (racemic) [Example I-110]	90

same assay, conditions: application rate 1280 g/ha; Table A12a

SMILES	pre-emergence activity against DIGSA [%]
COCc1nn(CCC(OC)OC)cc1C(=O)N1CCCC1Cc1ccccc1F (racemic) [Example I-048]	90
Cn1cc(C(=O)N2CCC2Cc2c(F)cccc2Cl)c(COCC(F)F)n1 (racemic) [Example I-107]	100
CCOCc1nn(C)cc1C(=O)N1CCC1Cc1c(F)cccc1Cl (racemic) [Example I-110]	90
C=CCOCc1c(C(=O)N2CCCC2Cc2ccccc2F)cnn1C (single isomer, unassigned) [Example I-144]	90

tested on: SETVI; assay: as above; assay type: in vivo, Setaria viridis; conditions: application rate 1280 g/ha; visual grading after ca. 3 weeks vs untreated controls; 100% = plants have died off, 0% = as control plants
Description: as §1

SMILES	pre-emergence activity against SETVI [%]
Cn1cc(C(=O)N2CCC2Cc2c(F)cccc2Cl)c(COCC(F)F)n1 (racemic) [Example I-107]	100
CCOCc1nn(C)cc1C(=O)N1CCC1Cc1c(F)cccc1Cl (racemic) [Example I-110]	100
C=CCOCc1c(C(=O)N2CCCC2Cc2ccccc2F)cnn1C (single isomer, unassigned) [Example I-144]	90

tested on: STEME; assay: B. Herbicidal post-emergence action on harmful plants (Tables B); assay type: in vivo, Stellaria media; conditions: application rate 1280 g/ha; Table B6
Method: (§2) Seeds of mono- and dicotyledonous weed plants were placed in plastic pots in sandy loam soil (doubly sown with in each case one species of mono- or dicotyledonous weed plants per pot), covered with soil and cultivated in a greenhouse under controlled growth conditions. 2 to 3 weeks after sowing, the test plants were treated at the one-leaf stage. The compounds of the invention, formulated in the form of wettable powders (WP) or as emulsion concentrates (EC), were applied onto the green parts of the plants as aqueous suspension or emulsion with addition of 0.5% additive at a water application rate of 600 liters per hectare (converted). After the test plants had been kept in the greenhouse under optimum growth conditions for about 3 weeks, the activity of the preparations was rated visually in comparison to untreated controls. For example, 100% activity = the plants have died, 0% activity = like control plants. Tables B1 to B12, below, show the effects of selected compounds of the general formula (I) according to table 1 on various harmful plants and an application rate corresponding to 1280 g/ha or below obtained by the experimental procedure mentioned above. Table B1a: post-emergence activity at 1280g/ha against ABUTH in %

SMILES	post-emergence activity against STEME [%]
Cn1cc(C(=O)N2CCC2Cc2c(F)cccc2Cl)c(COCC(F)F)n1 (racemic) [Example I-107]	90

tested on: LOLRI; assay: A. Herbicidal pre-emergence action on harmful plants (Tables A); assay type: in vivo, Lolium rigidum; conditions: application rate 320 g/ha; visual grading after ca. 3 weeks vs untreated controls; 100% = plants have died off, 0% = as control plants
Description: as §1

SMILES	pre-emergence activity against LOLRI [%]
CCOCc1nn(C)cc1C(=O)N1CCC1Cc1c(F)cccc1Cl (racemic) [Example I-110]	90

same assay, conditions: application rate 1280 g/ha; visual grading after ca. 3 weeks vs untreated controls; 100% = plants have died off, 0% = as control plants

SMILES	pre-emergence activity against LOLRI [%]
COCc1nn(CCC(OC)OC)cc1C(=O)N1CCCC1Cc1ccccc1F (racemic) [Example I-048]	90
Cn1cc(C(=O)N2CCC2Cc2c(F)cccc2Cl)c(COCC(F)F)n1 (racemic) [Example I-107]	90
CCOCc1nn(C)cc1C(=O)N1CCC1Cc1c(F)cccc1Cl (racemic) [Example I-110]	100

tested on: VERPE; assay: B. Herbicidal post-emergence action on harmful plants (Tables B); assay type: in vivo, Veronica persica; conditions: application rate 1280 g/ha; Table B11a
Method: as §2

SMILES	post-emergence activity against VERPE [%]
Cn1cc(C(=O)N2CCC2Cc2c(F)cccc2Cl)c(COCC(F)F)n1 (racemic) [Example I-107]	90

tested on: STEME; assay: A. Herbicidal pre-emergence action on harmful plants (Tables A); assay type: in vivo, Stellaria media; conditions: application rate 1280 g/ha; visual grading after ca. 3 weeks vs untreated controls; 100% = plants have died off, 0% = as control plants
Description: as §1

SMILES	pre-emergence activity against STEME [%]
Cn1cc(C(=O)N2CCC2Cc2c(F)cccc2Cl)c(COCC(F)F)n1 (racemic) [Example I-107]	90
CCOCc1nn(C)cc1C(=O)N1CCC1Cc1c(F)cccc1Cl (racemic) [Example I-110]	90
C=CCOCc1c(C(=O)N2CCCC2Cc2ccccc2F)cnn1C (single isomer, unassigned) [Example I-144]	90

tested on: POAAN; assay: as above; assay type: in vivo, Poa annua; conditions: application rate 80 g/ha; Table A7c
Description: as §1

SMILES	pre-emergence activity against POAAN [%]
C=CCOCc1c(C(=O)N2CCCC2Cc2ccccc2F)cnn1C (single isomer, unassigned) [Example I-144]	100

same assay, conditions: application rate 320 g/ha; Table A7b

SMILES	pre-emergence activity against POAAN [%]
COCc1nn(CCC(OC)OC)cc1C(=O)N1CCCC1Cc1ccccc1F (racemic) [Example I-048]	90
Cn1cc(C(=O)N2CCC2Cc2c(F)cccc2Cl)c(COCC(F)F)n1 (racemic) [Example I-107]	100
CCOCc1nn(C)cc1C(=O)N1CCC1Cc1c(F)cccc1Cl (racemic) [Example I-110]	90
COCc1nn(C)cc1C(=O)N1CCC1Cc1ccccc1Cl (racemic) [Example I-113]	100
C=CCOCc1c(C(=O)N2CCCC2Cc2ccccc2F)cnn1C (single isomer, unassigned) [Example I-144]	100

same assay, conditions: application rate 1280 g/ha; visual grading after ca. 3 weeks vs untreated controls; 100% = plants have died off, 0% = as control plants

SMILES	pre-emergence activity against POAAN [%]
COCc1nn(CCC(OC)OC)cc1C(=O)N1CCCC1Cc1ccccc1F (racemic) [Example I-048]	100
Cn1cc(C(=O)N2CCC2Cc2c(F)cccc2Cl)c(COCC(F)F)n1 (racemic) [Example I-107]	100
CCOCc1nn(C)cc1C(=O)N1CCC1Cc1c(F)cccc1Cl (racemic) [Example I-110]	100
COCc1nn(C)cc1C(=O)N1CCC1Cc1ccccc1Cl (racemic) [Example I-113]	100
C=CCOCc1c(C(=O)N2CCCC2Cc2ccccc2F)cnn1C (single isomer, unassigned) [Example I-144]	100

tested on: AMARE; assay: B. Herbicidal post-emergence action on harmful plants (Tables B); assay type: in vivo, Amaranthus retroflexus; conditions: application rate 1280 g/ha; Table B8
Method: as §2

SMILES	post-emergence activity against AMARE [%]
COCc1nn(CCC(OC)OC)cc1C(=O)N1CCCC1Cc1ccccc1F (racemic) [Example I-048]	90
Cn1cc(C(=O)N2CCC2Cc2c(F)cccc2Cl)c(COCC(F)F)n1 (racemic) [Example I-107]	90
CCOCc1nn(C)cc1C(=O)N1CCC1Cc1c(F)cccc1Cl (racemic) [Example I-110]	100
COCc1nn(C)cc1C(=O)N1CCC1Cc1ccccc1Cl (racemic) [Example I-113]	90
C=CCOCc1c(C(=O)N2CCCC2Cc2ccccc2F)cnn1C (single isomer, unassigned) [Example I-144]	90

tested on: ECHCG; assay: A. Herbicidal pre-emergence action on harmful plants (Tables A); assay type: in vivo, Echinochloa crus-galli; conditions: application rate 320 g/ha; visual grading after ca. 3 weeks vs untreated controls; 100% = plants have died off, 0% = as control plants
Description: as §1

SMILES	pre-emergence activity against ECHCG [%]
Cn1cc(C(=O)N2CCC2Cc2c(F)cccc2Cl)c(COCC(F)F)n1 (racemic) [Example I-107]	90
CCOCc1nn(C)cc1C(=O)N1CCC1Cc1c(F)cccc1Cl (racemic) [Example I-110]	90
C=CCOCc1c(C(=O)N2CCCC2Cc2ccccc2F)cnn1C (single isomer, unassigned) [Example I-144]	90

same assay, conditions: application rate 1280 g/ha; visual grading after ca. 3 weeks vs untreated controls; 100% = plants have died off, 0% = as control plants

SMILES	pre-emergence activity against ECHCG [%]
COCc1nn(CCC(OC)OC)cc1C(=O)N1CCCC1Cc1ccccc1F (racemic) [Example I-048]	90
Cn1cc(C(=O)N2CCC2Cc2c(F)cccc2Cl)c(COCC(F)F)n1 (racemic) [Example I-107]	100
CCOCc1nn(C)cc1C(=O)N1CCC1Cc1c(F)cccc1Cl (racemic) [Example I-110]	100
COCc1nn(C)cc1C(=O)N1CCC1Cc1ccccc1Cl (racemic) [Example I-113]	90
C=CCOCc1c(C(=O)N2CCCC2Cc2ccccc2F)cnn1C (single isomer, unassigned) [Example I-144]	100

tested on: MATIN; assay: as above; assay type: in vivo, Matricaria inodora; conditions: application rate 1280 g/ha; visual grading after ca. 3 weeks vs untreated controls; 100% = plants have died off, 0% = as control plants
Description: as §1

SMILES	pre-emergence activity against MATIN [%]
Cn1cc(C(=O)N2CCC2Cc2c(F)cccc2Cl)c(COCC(F)F)n1 (racemic) [Example I-107]	100
CCOCc1nn(C)cc1C(=O)N1CCC1Cc1c(F)cccc1Cl (racemic) [Example I-110]	90
COCc1nn(C)cc1C(=O)N1CCC1Cc1ccccc1Cl (racemic) [Example I-113]	90
